Results published in publication PMC9329436, “Optimization of the 4-anilinoquin(az)oline scaffold as epidermal growth factor receptor (EGFR) inhibitors for chordoma utilizing a toxicology profiling assay platform” (Scientific Reports, 2022).
Read-outs that look alike come from different tables or passages of the source.

Experiments:
Assay type in all cases: biochemical
[1] = target: 320 wild-type protein kinases (Homo sapiens, UniProt Q9UEW8); conditions: kinase STK39, singlicate
Excerpt: (§1) Table S4. Profiling of two compounds at two concentrations against 320 wild-type protein kinases; singlicate measurement; Residual activities (% of control).

[2] = target: T1, 320 wild-type protein kinases (Homo sapiens, UniProt O15146); conditions: MUSK, singlicate
T1 sequence (O15146 24-869): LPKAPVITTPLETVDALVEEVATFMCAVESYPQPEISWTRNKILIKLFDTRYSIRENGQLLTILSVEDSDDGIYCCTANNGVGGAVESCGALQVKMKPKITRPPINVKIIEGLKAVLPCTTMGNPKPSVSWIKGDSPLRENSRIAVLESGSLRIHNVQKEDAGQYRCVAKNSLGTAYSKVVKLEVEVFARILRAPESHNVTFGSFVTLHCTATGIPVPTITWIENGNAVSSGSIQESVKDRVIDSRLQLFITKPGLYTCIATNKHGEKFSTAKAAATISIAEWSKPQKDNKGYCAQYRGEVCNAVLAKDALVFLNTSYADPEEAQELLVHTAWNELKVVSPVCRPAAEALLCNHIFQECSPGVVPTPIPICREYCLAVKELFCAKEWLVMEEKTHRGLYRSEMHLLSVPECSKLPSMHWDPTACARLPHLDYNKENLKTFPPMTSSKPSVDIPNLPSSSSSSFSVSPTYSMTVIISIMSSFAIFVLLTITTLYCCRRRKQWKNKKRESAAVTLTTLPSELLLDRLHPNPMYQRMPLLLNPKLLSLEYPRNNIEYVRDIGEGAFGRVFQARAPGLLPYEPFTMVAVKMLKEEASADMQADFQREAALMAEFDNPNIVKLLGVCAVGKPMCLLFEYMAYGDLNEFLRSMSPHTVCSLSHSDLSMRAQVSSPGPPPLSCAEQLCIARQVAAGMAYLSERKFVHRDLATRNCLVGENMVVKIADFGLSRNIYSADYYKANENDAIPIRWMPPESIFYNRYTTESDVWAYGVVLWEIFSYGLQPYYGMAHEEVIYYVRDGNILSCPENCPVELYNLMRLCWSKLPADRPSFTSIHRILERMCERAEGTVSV
Excerpt: as §1

[3] = target: 320 wild-type protein kinases (Homo sapiens, UniProt P05771); conditions: singlicate
320 wild-type protein kinases (Homo sapiens, UniProt P05771), sequence (P05771 whole entry): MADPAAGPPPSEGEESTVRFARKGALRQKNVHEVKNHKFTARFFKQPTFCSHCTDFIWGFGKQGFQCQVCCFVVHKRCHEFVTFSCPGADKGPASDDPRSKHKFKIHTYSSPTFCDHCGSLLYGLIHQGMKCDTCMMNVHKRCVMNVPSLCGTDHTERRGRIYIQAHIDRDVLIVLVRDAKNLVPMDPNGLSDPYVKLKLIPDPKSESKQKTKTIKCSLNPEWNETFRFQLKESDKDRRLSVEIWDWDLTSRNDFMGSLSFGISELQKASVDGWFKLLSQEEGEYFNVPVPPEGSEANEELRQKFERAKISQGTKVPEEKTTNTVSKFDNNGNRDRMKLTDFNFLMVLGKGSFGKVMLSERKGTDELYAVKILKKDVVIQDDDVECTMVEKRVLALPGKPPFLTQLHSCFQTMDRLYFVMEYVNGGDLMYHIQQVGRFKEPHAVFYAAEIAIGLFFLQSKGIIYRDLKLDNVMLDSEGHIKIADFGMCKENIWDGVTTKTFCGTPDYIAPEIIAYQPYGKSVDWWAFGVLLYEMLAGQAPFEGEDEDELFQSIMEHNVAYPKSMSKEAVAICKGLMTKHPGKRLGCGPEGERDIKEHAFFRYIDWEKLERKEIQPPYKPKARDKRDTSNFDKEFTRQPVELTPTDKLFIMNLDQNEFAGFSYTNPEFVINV
Excerpt: as §1

[4] = target: 320 wild-type protein kinases (Homo sapiens, UniProt P11802); conditions: singlicate
320 wild-type protein kinases (Homo sapiens, UniProt P11802), sequence (P11802 whole entry): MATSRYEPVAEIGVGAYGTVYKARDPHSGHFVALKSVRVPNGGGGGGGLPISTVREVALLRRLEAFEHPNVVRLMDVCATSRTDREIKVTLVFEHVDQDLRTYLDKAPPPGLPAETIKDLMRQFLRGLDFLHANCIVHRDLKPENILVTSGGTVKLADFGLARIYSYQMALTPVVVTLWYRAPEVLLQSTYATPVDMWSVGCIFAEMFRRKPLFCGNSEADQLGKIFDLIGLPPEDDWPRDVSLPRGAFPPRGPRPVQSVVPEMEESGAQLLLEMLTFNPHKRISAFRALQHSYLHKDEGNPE
Excerpt: as §1

[5] = target: 320 wild-type protein kinases (Homo sapiens, UniProt P17948); conditions: kinase VEGF-R1, singlicate
320 wild-type protein kinases (Homo sapiens, UniProt P17948), sequence (P17948 27-1338): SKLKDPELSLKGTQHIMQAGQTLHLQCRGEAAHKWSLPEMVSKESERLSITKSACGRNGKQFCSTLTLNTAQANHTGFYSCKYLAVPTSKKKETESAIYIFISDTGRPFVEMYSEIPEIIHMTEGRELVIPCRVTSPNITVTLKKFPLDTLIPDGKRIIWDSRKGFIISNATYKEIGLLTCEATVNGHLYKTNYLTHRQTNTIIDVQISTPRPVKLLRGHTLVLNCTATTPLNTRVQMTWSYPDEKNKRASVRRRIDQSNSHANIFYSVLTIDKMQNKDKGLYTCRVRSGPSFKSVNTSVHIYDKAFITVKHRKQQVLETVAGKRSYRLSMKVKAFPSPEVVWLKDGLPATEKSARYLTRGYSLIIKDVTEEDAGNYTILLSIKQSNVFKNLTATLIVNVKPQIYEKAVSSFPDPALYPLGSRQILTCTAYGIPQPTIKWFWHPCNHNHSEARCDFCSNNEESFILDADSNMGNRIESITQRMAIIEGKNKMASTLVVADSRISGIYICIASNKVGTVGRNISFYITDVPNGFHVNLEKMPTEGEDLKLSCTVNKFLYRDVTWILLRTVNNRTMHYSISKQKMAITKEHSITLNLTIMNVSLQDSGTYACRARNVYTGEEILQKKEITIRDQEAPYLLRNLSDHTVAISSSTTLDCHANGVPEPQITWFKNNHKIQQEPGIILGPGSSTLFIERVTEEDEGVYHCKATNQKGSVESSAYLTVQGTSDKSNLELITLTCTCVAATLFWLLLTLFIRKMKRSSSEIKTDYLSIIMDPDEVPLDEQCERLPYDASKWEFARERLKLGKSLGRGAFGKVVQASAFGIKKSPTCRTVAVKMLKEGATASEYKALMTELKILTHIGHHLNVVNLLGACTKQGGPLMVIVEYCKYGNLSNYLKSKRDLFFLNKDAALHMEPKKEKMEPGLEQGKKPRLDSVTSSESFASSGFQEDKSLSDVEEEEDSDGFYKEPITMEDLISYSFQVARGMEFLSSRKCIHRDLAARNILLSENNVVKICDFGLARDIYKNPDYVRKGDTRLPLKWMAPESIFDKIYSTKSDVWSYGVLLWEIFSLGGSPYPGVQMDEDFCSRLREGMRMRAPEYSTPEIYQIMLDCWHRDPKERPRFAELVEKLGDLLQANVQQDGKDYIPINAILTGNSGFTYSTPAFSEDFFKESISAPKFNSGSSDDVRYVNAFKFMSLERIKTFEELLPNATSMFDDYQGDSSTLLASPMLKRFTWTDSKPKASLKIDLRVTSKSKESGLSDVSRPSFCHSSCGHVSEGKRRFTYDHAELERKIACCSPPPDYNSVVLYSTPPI
Excerpt: as §1

[6] = target: T2, 320 wild-type protein kinases (Homo sapiens, UniProt Q9Y2U5); conditions: singlicate
T2 sequence (Q9Y2U5 1-619): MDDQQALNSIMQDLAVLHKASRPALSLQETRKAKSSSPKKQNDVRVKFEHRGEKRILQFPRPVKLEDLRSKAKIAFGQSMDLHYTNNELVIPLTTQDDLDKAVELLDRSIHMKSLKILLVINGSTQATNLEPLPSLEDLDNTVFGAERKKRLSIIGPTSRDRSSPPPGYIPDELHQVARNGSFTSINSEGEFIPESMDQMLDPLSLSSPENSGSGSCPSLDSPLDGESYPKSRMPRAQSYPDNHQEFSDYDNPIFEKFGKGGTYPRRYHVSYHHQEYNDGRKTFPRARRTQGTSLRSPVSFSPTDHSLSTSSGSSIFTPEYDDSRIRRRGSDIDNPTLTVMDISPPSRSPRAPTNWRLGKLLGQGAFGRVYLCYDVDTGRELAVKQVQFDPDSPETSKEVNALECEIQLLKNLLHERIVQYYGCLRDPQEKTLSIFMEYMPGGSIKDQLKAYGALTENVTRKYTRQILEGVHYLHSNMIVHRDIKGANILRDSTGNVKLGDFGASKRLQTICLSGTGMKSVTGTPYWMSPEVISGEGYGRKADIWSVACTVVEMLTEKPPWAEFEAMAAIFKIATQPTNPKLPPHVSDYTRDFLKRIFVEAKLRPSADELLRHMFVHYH
Excerpt: as §1

[7] = target: 320 wild-type protein kinases (Homo sapiens, UniProt Q9H2X6); conditions: singlicate
320 wild-type protein kinases (Homo sapiens, UniProt Q9H2X6), sequence (Q9H2X6 whole entry): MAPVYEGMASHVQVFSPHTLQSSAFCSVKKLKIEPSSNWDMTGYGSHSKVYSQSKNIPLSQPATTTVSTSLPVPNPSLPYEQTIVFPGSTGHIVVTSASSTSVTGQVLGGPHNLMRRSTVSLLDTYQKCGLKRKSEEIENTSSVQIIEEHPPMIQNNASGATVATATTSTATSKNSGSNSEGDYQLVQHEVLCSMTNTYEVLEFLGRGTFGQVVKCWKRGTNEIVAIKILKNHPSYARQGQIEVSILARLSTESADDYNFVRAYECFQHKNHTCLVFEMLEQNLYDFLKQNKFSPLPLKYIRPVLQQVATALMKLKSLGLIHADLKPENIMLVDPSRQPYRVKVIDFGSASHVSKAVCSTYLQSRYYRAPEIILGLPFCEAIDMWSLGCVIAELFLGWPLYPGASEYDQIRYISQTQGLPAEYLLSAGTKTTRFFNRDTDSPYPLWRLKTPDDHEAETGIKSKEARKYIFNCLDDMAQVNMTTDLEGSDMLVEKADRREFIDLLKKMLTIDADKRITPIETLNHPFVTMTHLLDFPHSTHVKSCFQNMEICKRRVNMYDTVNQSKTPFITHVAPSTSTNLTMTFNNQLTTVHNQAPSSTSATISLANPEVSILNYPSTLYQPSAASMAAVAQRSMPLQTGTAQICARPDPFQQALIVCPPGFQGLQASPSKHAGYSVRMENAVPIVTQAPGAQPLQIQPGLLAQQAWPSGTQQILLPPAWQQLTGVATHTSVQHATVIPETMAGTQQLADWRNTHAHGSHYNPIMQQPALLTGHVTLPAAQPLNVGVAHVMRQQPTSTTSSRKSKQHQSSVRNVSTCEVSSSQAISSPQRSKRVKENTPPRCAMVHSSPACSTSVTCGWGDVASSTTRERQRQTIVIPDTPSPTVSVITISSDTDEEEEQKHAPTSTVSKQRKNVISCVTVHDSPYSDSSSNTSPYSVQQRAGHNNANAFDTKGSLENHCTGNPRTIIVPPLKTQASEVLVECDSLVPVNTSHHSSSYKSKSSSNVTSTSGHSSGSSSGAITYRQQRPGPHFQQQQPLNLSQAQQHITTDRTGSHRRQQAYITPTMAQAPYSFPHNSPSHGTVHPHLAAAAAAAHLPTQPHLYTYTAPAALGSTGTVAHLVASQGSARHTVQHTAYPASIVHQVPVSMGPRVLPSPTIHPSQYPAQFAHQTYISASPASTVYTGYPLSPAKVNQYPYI
Excerpt: as §1

[8] = target: T3, 320 wild-type protein kinases (Homo sapiens, UniProt Q96PF2); conditions: kinase TSK2, singlicate
T3 sequence (Q96PF2 1-358): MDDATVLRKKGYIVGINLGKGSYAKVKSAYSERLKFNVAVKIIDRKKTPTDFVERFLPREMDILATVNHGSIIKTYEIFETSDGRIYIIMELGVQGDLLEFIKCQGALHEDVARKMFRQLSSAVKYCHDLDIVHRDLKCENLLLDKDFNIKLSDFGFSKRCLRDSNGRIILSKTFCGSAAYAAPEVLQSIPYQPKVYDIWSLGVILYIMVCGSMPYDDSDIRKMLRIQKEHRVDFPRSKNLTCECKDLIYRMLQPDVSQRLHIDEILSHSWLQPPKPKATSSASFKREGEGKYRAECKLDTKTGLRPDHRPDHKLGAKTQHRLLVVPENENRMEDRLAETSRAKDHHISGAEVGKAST
Excerpt: as §1

Row | Structure (SMILES) | Residual activity, STK39 ([1]; assay conc. 1.0E-06 M) | Residual activity, STK39 ([1]; assay conc. 1.0E-07 M) | Residual activity ([2]; 1.0E-06 M) | Residual activity ([2]; 1.0E-07 M) | Residual activity ([3]; PKC-beta1, 1.0E-06 M) | Residual activity ([3]; PKC-beta1, 1.0E-07 M) | Residual activity ([4]; CDK4/CycD1, 1.0E-06 M) | Residual activity ([4]; CDK4/CycD1, 1.0E-07 M) | Residual activity ([4]; CDK4/CycD3, 1.0E-06 M) | Residual activity ([4]; CDK4/CycD3, 1.0E-07 M) | Residual activity, VEGF-R1 ([5]; assay conc. 1.0E-06 M) | Residual activity, VEGF-R1 ([5]; assay conc. 1.0E-07 M) | Residual activity ([6]; MEKK2, 1.0E-06 M) | Residual activity ([6]; MEKK2, 1.0E-07 M) | Residual activity ([7]; HIPK2, 1.0E-06 M) | Residual activity ([7]; HIPK2, 1.0E-07 M) | Residual activity, TSK2 ([8]; assay conc. 1.0E-06 M) | Residual activity, TSK2 ([8]; assay conc. 1.0E-07 M)
1 | C#Cc1cc(Nc2ncnc3cc(I)ccc23)ccc1Cl [Compound 41] | 98 % of control | 106 % of control | 96 % of control | 94 % of control | 96 % of control | 110 % of control | 79 % of control | 75 % of control | 87 % of control | 94 % of control | 113 % of control | 92 % of control | 93 % of control | 112 % of control | 101 % of control | 97 % of control | 123 % of control | 113 % of control
2 | C#Cc1cc(Nc2ncnc3cc(OC)c(OC)cc23)ccc1Cl [Compound 45] | 91 % of control | 102 % of control | 87 % of control | 94 % of control | 88 % of control | 95 % of control | 95 % of control | 87 % of control | 87 % of control | 94 % of control | 85 % of control | 119 % of control | 107 % of control | 120 % of control | 94 % of control | 98 % of control | 331 % of control | 109 % of control
